Measured values published in patent US20230365571A1, “COMPOUNDS AND COMPOSITIONS AS Sppl2a INHIBITORS” (Novartis AG, priority 2020, published 2023).

How the values were obtained:
Format in all cases: cell-based
[1] = target: T1, Sppl2a CD74 (Mus musculus, UniProt Q9JJF9); assay: CD74/p8 mouse whole blood assay, flow cytometry format; settings: Balb/c mouse whole blood, 5 h, CD74 signal on gated live B cells
T1 construct: Mouse whole blood Balb/c mice (sodium citrate) was ordered by Bioreclamation LLC; tissue Bioreclamation LLC
T1 sequence (Q9JJF9 26-523): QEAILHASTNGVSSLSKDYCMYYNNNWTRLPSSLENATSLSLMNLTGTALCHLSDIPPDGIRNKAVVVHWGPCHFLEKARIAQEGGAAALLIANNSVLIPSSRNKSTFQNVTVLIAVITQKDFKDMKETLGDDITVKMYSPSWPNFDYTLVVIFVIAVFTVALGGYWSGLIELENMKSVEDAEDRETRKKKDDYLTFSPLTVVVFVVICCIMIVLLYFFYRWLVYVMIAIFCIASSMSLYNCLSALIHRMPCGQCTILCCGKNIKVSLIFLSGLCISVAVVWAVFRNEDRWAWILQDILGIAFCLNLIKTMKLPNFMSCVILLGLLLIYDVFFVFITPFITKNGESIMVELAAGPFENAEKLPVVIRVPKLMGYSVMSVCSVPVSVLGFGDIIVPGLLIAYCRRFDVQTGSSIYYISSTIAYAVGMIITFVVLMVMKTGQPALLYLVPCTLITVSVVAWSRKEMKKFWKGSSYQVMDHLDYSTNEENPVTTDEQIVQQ
Method: CD74/p8 Mouse Whole Blood Assay: Flow Cytometry Format
Mouse whole blood Balb/c mice (sodium citrate) was ordered by Bioreclamation LLC; USA. The blood was used the next day upon receipt (stored at 4° C.). 100 μL blood were transferred in 96 well format plate, where compounds, an 11 point dilutions down from 30 μM, to be tested were previously deposited. The plate was incubated for 5 h in the incubator at 37° C., 5% CO2 under continuous motion. After the incubation the blood was diluted with RBC Lysis Buffer (Amined; Cat. Nr 3-13F00-H or BD; Cat. Nr 555899). The solution was mixed by pipetting and incubated 10 min in the 37° C. incubator. The white blood cells were sedimented for 3 min at 2000 rpm. After removing the supernatant the cell pellet was resuspended and washed twice in RCB Buffer and kept≈ 5 min at room temperature, followed by a centrifugation for 2 min at 2000 rpm. The cell pellet was then resuspend in D-PBS and centrifuged twice. Finally, the cells were taken up in of D-PBS/0.5% inactivated fetal bovine serum/2 mM EDTA. The cell suspension was treated with Live/Dead fixable stain (Life Technologies, >470 nm version), B cells were identified by surface staining with an anti-B220 antibody coupled to APC fluorofor. After staining, the cells were extensively washed with PBS. The cells were permeabilized and fixed in FACS lysing buffer; (BD; #349202, dil 1:10 in water) and labelled with an anti CD74, FITC labelled antibody, washed once more with diluted FACS lysing buffer and spin down. The cell pellet was washed with D-PBS/0.5% inactivated fetal bovine serum/2 mM EDTA and PBS prior to the analysis in a flow cytometer. The compound concentrations were plotted against the intensity (medium fluorescence intensity) of the CD74 signal on the gated life B cell and IC50 were determined by fitting data for a 11 concentrations dose response.

[2] = target: T2, human SPPL2a (Homo sapiens, UniProt Q8TCT8); assay: Sppl2a TL (translocation) imaging assay in U-2 OS cells; design: expressed in transfected cells; settings: U-2 OS cells expressing human SPPL2a and EGFP-TNFα(aa1-76) NTF substrate; 24 h
T2 sequence (Q8TCT8 26-520): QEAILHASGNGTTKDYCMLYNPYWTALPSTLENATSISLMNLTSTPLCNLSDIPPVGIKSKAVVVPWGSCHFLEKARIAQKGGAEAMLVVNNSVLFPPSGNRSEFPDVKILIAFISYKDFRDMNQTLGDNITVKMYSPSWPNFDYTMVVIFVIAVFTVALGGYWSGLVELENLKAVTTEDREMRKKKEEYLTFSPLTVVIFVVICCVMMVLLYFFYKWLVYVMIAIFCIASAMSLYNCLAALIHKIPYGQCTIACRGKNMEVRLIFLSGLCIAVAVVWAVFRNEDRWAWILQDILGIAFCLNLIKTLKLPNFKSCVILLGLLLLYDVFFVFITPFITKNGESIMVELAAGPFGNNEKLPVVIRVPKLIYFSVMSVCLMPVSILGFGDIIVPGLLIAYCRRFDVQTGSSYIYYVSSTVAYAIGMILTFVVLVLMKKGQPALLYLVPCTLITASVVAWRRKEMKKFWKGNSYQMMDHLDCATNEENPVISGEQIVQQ
Method in brief: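 U-2 OS cells stably expressing human SPPL2a plus doxycycline-induced EGFP-TNFα(aa1-76) NTF, treated 24 h at 37 °C with inhibitor (100 μM–1 nM, 11 points, 0.9% DMSO, 5 μg/mL doxycycline). Imaging of nuclear-minus-cytoplasmic EGFP intensity; % inhibition versus 0.5 μM LY-411,575 and DMSO, IC50 by nonlinear regression; CC50 from cell count.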

[3] = target: T2, human SPPL2a; assay: Sppl2a RGA (reporter gene assay) in HEK293 cells; design: expressed in transfected cells; host or cells: HEK293 (transient); settings: NT-TNF-VP16-Gal4 substrate, Gal4-luciferase reporter, 24 h
Method in brief: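 Cleavage of a membrane-bound TNF N-terminal–VP16-Gal4 substrate drives Gal4-luciferase expression in transiently transfected HEK293 cells also expressing human SPPL2a. Compounds incubated 24 h, 37 °C, 5% CO2; luminescence read, normalized and plotted against concentration for IC50.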

| IC50 [1] | IC50 [2] | IC50 [3] | SMILES |
| --- | --- | --- | --- |
| 358 nM | 24 nM | 29 nM | CNC(=O)c1nc(C)c(C(=O)NC[C@@H](C)C(=O)N[C@@H]2C(=O)N3CCCN3Cc3ccccc32)s1 [Example 1, N^2,4-dimethyl-N^5—((R)-2-methyl-3-oxo-3-(((S)-11-oxo-2,3,10,11-tetrahydro-1H,5H-benzo[d]pyrazolo[1,2-a][1,2]diazepin-10-yl)amino)propyl)thiazole-2,5-dicarboxamide] |
| 100 nM | 0.5 nM | 3 nM | Cc1nc(NC(=O)C(C)C)sc1C(=O)NC[C@H](C(=O)N[C@@H]1C(=O)N2CCCN2Cc2ccccc21)C(F)(F)F [Example 3, 2-Isobutyramido-4-methyl-N-((R)-3,3,3-trifluoro-2-(((S)-11-oxo-2,3,10,11-tetrahydro-1H,5H-benzo[d]pyrazolo [1,2-a][1,2]diazepin-10-yl)carbamoyl)pro-pyl)thiazole-5-carboxamide] |
| 100 nM | 1 nM | 12 nM | Cc1nc(NC(=O)C(C)C)sc1C(=O)NC[C@@H](C)C(=O)N[C@@H]1C(=O)N2CCCN2Cc2ccccc21 [Example 4, 2-Isobutyramido-4-methyl-N-((R)-2-methyl-3-oxo-3-(((S)-11-oxo-2,3,10,11-tetrahydro-1H,5H-benzo[d]pyrazolo [1,2-a][1,2]diazepin-10-yl)amino)propyl) thiazole-5-carboxamide] |
| 225 nM | 2 nM | 2 nM | Cc1nc(C(=O)NCC(F)F)sc1C(=O)NC[C@H](C(=O)N[C@@H]1C(=O)N2CCCN2Cc2ccccc21)C(F)(F)F [Example 5, N^2-(2,2-Difluoroethyl)-4-methyl-N^5-((R)-3,3,3-trifluoro-2-(((S)-11-oxo-2,3,10,11-tetrahydro-1H,5H-benzo[d]pyrazolo [1,2-a][1,2]diazepin-10-yl)carbamoyl)pro-pyl)thiazole-2,5-dicarboxamide] |
| 1560 nM | 2 nM | 2 nM | Cc1nc(C(=O)NCC(F)F)sc1C(=O)NC[C@H](C(=O)N[C@@H]1C(=O)N2CCCN2Cc2ccccc21)C1CC1 [Example 6, N^5-((R)-2-Cyclopropyl-3-oxo-3-(((S)-11-oxo-2,3,10,11-tetrahydro-1H,5H-benzo[d]pyrazolo [1,2-a][1,2]diazepin-10-yl)amino)propyl)-N^2-(2,2-difluoroethyl)-4-methylthiazole-2,5-dicarboxamide] |
| 120 nM | 3 nM | 2 nM | CCNC(=O)c1nc(C)c(C(=O)NC[C@H](C(=O)N[C@@H]2C(=O)N3CCCN3Cc3ccccc32)C(F)(F)F)s1 [Example 7, N^2-Ethyl-4-methyl-N^5-((R)-3,3,3-trifluoro-2-(((S)-11-oxo-2,3,10,11-tetrahydro-1H,5H-benzo[d]pyrazolo [1,2-a][1,2]diazepin-10-yl)carbamoyl)pro-pyl)thiazole-2,5-dicarboxamide] |
| 2430 nM | 3 nM | 4 nM | CC[C@H](CNC(=O)c1sc(C(=O)NCC(F)F)nc1C)C(=O)N[C@@H]1C(=O)N2CCCN2Cc2ccccc21 [Example 8, N^2-(2,2-Difluoroethyl)-4-methyl-N^5-((R)-2-(((S)-11-oxo-2,3,10,11-tetrahydro-1H,5H-benzo[d]pyrazolo [1,2-a][1,2]diazepin-10-yl)carbamoyl)butyl) thiazole-2,5-dicarboxamide] |
| 157 nM | 3 nM | 4 nM | CNC(=O)c1nc(C)c(C(=O)NC[C@H](C(=O)N[C@@H]2C(=O)N3CCCN3Cc3ccccc32)C2CC2)s1 [Example 9, N^5-((R)-2-Cyclopropyl-3-oxo-3-(((S)-11-oxo-2,3,10,11-tetrahydro-1H,5H-benzo[d]pyrazolo [1,2-a][1,2]diazepin-10-yl)amino)propyl)-N^2,4-dimethylthiazole-2,5-dicarboxamide] |
| 289 nM | 4 nM | 5 nM | CCNC(=O)c1nc(C)c(C(=O)NC[C@@H](CC)C(=O)N[C@@H]2C(=O)N3CCCN3Cc3ccccc32)s1 [Example 10, N^2-Ethyl-4-methyl-N^5-((R)-2-(((S)-11-oxo-2,3,10,11-tetrahydro-1H,5H-benzo[d]pyrazolo [1,2-a][1,2]diazepin-10-yl)carbamoyl)butyl) thiazole-2,5-dicarboxamide] |
| 95 nM | 4 nM | 3 nM | CNC(=O)c1nc(C)c(C(=O)NC[C@H](C(=O)N[C@@H]2C(=O)N3CCCN3Cc3ccccc32)C(F)(F)F)s1 [Example 11, N^2,4-Dimethyl-N^5-((R)-3,3,3-trifluoro-2-(((S)-11-oxo-2,3,10,11-tetrahydro-1H,5H-benzo[d]pyrazolo [1,2-a][1,2]diazepin-10-yl)carbamoyl)pro-pyl)thiazole-2,5-dicarboxamide] |
| 280 nM | 5 nM | 4 nM | CCNC(=O)c1nc(C)c(C(=O)NC[C@H](C(=O)N[C@@H]2C(=O)N3CCCN3Cc3ccccc32)C2CC2)s1 [Example 12, N^5-((R)-2-Cyclopropyl-3-oxo-3-(((S)-11-oxo-2,3,10,11-tetrahydro-1H,5H-benzo[d]pyrazolo [1,2-a][1,2]diazepin-10-yl)amino)propyl)-N^2-ethyl-4-methylthiazole-2,5-dicarboxamide] |
| 161 nM | 6 nM | 8 nM | CC[C@H](CNC(=O)c1sc(C(=O)NC)nc1C)C(=O)N[C@@H]1C(=O)N2CCCN2Cc2ccccc21 [Example 13, N^2,4-Dimethyl-N^5-((R)-2-(((S)-11-oxo-2,3,10,11-tetrahydro-1H,5H-benzo[d]pyrazolo [1,2-a][1,2]diazepin-10-yl)carbamoyl)butyl) thiazole-2,5-dicarboxamide] |
| – | 116 nM | 19 nM | Cc1cc(F)cc2nc(C[C@@H](C)C(=O)N[C@@H]3C(=O)N4CCCN4Cc4c(F)cccc43)[nH]c12 [Example 118, (R)-N-((S)-6-fluoro-11-oxo-2,3,10,11-tetrahydro-1 H,5H-benzo[d]pyrazolo[1,2-a][1,2]diazepin-10-yl)-3-(5-fluoro-7-methyl-1H-benzo[d]imidazol-2-yl)-2-methylpropanamide] |
| – | 185 nM | 19 nM | CCC[C@H](Cc1nc2cc(F)cc(C)c2[nH]1)C(=O)N[C@@H]1C(=O)N2CCCN2Cc2ccccc21 [Example 119, (R)-2-((5-fluoro-7-methyl-1H-benzo[d]imidazol-2-yl)methyl)-N-((S)-11-oxo-2,3,10,11-tetrahydro-1H,5H-benzo[d]pyrazolo[1,2-a][1,2]diazepin-10-yl)pentanamide] |
